# Target: Mtb PanD Arg54 to alanine (Mycobacterium tuberculosis, UniProt P9WIL3, R54A)
# Type: binding
structure (smiles),measurement,value
"O=C(O)c1cnccn1 [POA, pyrazinoic acid]",binding in ITC,no binding

# Reference: publication PMC6969166, “The molecular basis of pyrazinamide activity on Mycobacterium tuberculosis PanD” (Nature Communications, 2020)
